Data as given in patent publication US12558428B2, “Heterobifunctional compounds and their use in treating disease” (Halda Therapeutics OpCo, Inc., priority 2024, dated 2026).

These molecules were tested on T-Rex 293 cells having increased expression of estrogen receptor alpha protein (assay: Cellular growth inhibition assay, T-Rex 293 cells, (+) doxycycline). Conditions: T-REx-293, 72 h, Table 7-A; T-Rex 293 cells with doxycycline (increased ERα expression); 72 hours; CellTiter-Glo; read-out: (+) Dox GI50.
Format: cell-based
How it was run: (§1)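 Growth of a doxycycline-inducible ERα T-Rex 293 clone, induced or not with 3 ng/mL doxycycline, was followed for 72 h with test compound in hormone-depleted medium. CellTiter-Glo luminescence gave GI50.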

| SMILES | GI50 [nM] |
| --- | --- |
| Cc1sc2c(c1C)C(c1ccc(CN3CC4(CCN(c5ccc([C@@H]6c7ccc(O)cc7CC[C@@H]6c6ccccc6)cc5)CC4)C3)cc1)=N[C@@H](C)c1nnc(C)n1-2 [III-107] | 50 to 500 |
| Cc1sc2c(c1C)C(c1ccc(N3CCC4(CC3)CN(CC3CN(c5ccc([C@@H]6c7ccc(O)cc7CC[C@@H]6c6ccccc6)cc5)C3)C4)cc1)=N[C@@H](C)c1nnc(C)n1-2 [III-108] | < 50 |
| Cc1sc2c(c1C)C(c1ccc(OCCN3CCN(CCOc4ccc([C@@H]5c6ccc(O)cc6CC[C@@H]5c5ccccc5)cc4)CC3)cc1)=N[C@@H](Cc1ncco1)c1nnc(C)n1-2 [III-109] | < 50 |
| Cc1sc2c(c1C)C(c1ccc(OCCN3CCN(CCOc4ccc([C@H]5c6ccc(O)cc6CC[C@H]5c5ccccc5)cc4)CC3)cc1)=N[C@@H](Cc1ncco1)c1nnc(C)n1-2 [III-110] | < 50 |
| Cc1sc2c(c1C)C(c1ccc(OCC3CCN(CCOc4ccc([C@@H]5c6ccc(O)cc6CC[C@@H]5c5ccccc5)cc4)CC3)cc1)=N[C@@H](Cc1ncco1)c1nnc(C)n1-2 [III-111] | < 50 |
| Cc1sc2c(c1C)C(c1ccc(OCC3CCN(CCOc4ccc([C@H]5c6ccc(O)cc6CC[C@H]5c5ccccc5)cc4)CC3)cc1)=N[C@@H](Cc1ncco1)c1nnc(C)n1-2 [III-112] | 50 to 500 |
| Cc1sc2c(c1C)C(c1ccc(N3CC(N4CCN(CCOc5ccc([C@@H]6c7ccc(O)cc7CC[C@@H]6c6ccccc6)cc5)CC4)C3)cc1)=N[C@@H](Cc1ncco1)c1nnc(C)n1-2 [III-113] | < 50 |
| Cc1sc2c(c1C)C(c1ccc(N3CC(N4CCN(CCOc5ccc([C@H]6c7ccc(O)cc7CC[C@H]6c6ccccc6)cc5)CC4)C3)cc1)=N[C@@H](Cc1ncco1)c1nnc(C)n1-2 [III-114] | < 50 |
| Cc1sc2c(c1C)C(c1ccc(CN3CCC4(CC3)CCN(c3ccc([C@@H]5c6ccc(O)cc6CC[C@@H]5c5ccccc5)cc3)CC4)cc1)=N[C@@H](C)c1nnc(C)n1-2 [III-115] | 50 to 500 |
| Cc1sc2c(c1C)C(c1ccc(N3CCC4(CC3)CCN(c3ccc([C@@H]5c6ccc(O)cc6CC[C@@H]5c5ccccc5)cc3)CC4)cc1)=N[C@@H](C)c1nnc(C)n1-2 [III-116] | > 2500 |
| Cc1sc2c(c1C)C(c1ccc(N3CCC4(CC3)CCN(c3ccc([C@@H]5c6ccc(O)cc6CC[C@@H]5c5ccccc5)cc3)C4)cc1)=N[C@@H](C)c1nnc(C)n1-2 [III-117] | 500 to 2500 |
| Cc1sc2c(c1C)C(c1ccc(N3CCC(O)(CN4CCN(c5ccc([C@@H]6c7ccc(O)cc7CC[C@@H]6c6ccccc6)cc5)CC4)CC3)cc1)=N[C@@H](C)c1nnc(C)n1-2 [III-118] | < 50 |
| Cc1sc2c(c1C)C(c1ccc(N3CCC(C(=O)N4CCN(c5ccc([C@@H]6c7ccc(O)cc7CC[C@@H]6c6ccccc6)cc5)CC4)CC3)cc1)=N[C@@H](C)c1nnc(C)n1-2 [III-119] | 50 to 500 |
| Cc1sc2c(c1C)C(c1ccc(N3CCC4(CCN(c5ccc([C@@H]6c7ccc(O)cc7CC[C@@H]6c6ccccc6)cc5)CC4)C3)cc1)=N[C@@H](C)c1nnc(C)n1-2 [III-120] | > 2500 |
| COC1(CN2CCN(c3ccc([C@@H]4c5ccc(O)cc5CC[C@@H]4c4ccccc4)cc3)CC2)CCN(c2ccc(C3=N[C@@H](C)c4nnc(C)n4-c4sc(C)c(C)c43)cc2)CC1 [III-121] | 500 to 2500 |
| Cc1sc2c(c1C)C(c1ccc(N3CCN(CC4CCN(c5ncc([C@H]6c7ccc(O)cc7CC[C@H]6c6ccccc6)cn5)CC4)CC3)cc1)=N[C@@H](C)c1nnc(C)n1-2 [III-122] | 500 to 2500 |
| Cc1sc2c(c1C)C(c1ccc(N3CCN(CC4CCN(c5ncc([C@@H]6c7ccc(O)cc7CC[C@@H]6c6ccccc6)cn5)CC4)CC3)cc1)=N[C@@H](C)c1nnc(C)n1-2 [III-123] | < 50 |

These molecules were tested on MCF7 cells (ATCC #HTB-22) (assay: Cellular growth inhibition assay, MCF7 cells purchased from ATCC). Conditions: Homo sapiens, MCF7, 144 h, Table 8-A; MCF7 cells purchased from ATCC; six days; CellTiter-Glo; read-out: GI50.
Format: cell-based
How it was run: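 GI50 values come from a four-parameter fit of CellTiter-Glo 2.0 luminescence after six days of compound exposure at 37° C. Seeding density depended on the source: 225 cells/well for ECACC MCF7, 1,500 for ATCC. Medium was RPMI 1640 with 10% FBS and 0.2 U/ml insulin.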

| GI50 [nM] | SMILES |
| --- | --- |
| 50 to 500 | Cc1sc2c(c1C)C(c1ccc(CN3CC4(CCN(c5ccc([C@@H]6c7ccc(O)cc7CC[C@@H]6c6ccccc6)cc5)CC4)C3)cc1)=N[C@@H](C)c1nnc(C)n1-2 [III-107] |
| 50 to 500 | Cc1sc2c(c1C)C(c1ccc(OCCN3CCN(CCOc4ccc([C@@H]5c6ccc(O)cc6CC[C@@H]5c5ccccc5)cc4)CC3)cc1)=N[C@@H](Cc1ncco1)c1nnc(C)n1-2 [III-109] |
| < 50 | Cc1sc2c(c1C)C(c1ccc(OCCN3CCN(CCOc4ccc([C@H]5c6ccc(O)cc6CC[C@H]5c5ccccc5)cc4)CC3)cc1)=N[C@@H](Cc1ncco1)c1nnc(C)n1-2 [III-110] |
| 50 to 500 | Cc1sc2c(c1C)C(c1ccc(OCC3CCN(CCOc4ccc([C@@H]5c6ccc(O)cc6CC[C@@H]5c5ccccc5)cc4)CC3)cc1)=N[C@@H](Cc1ncco1)c1nnc(C)n1-2 [III-111] |
| 50 to 500 | Cc1sc2c(c1C)C(c1ccc(OCC3CCN(CCOc4ccc([C@H]5c6ccc(O)cc6CC[C@H]5c5ccccc5)cc4)CC3)cc1)=N[C@@H](Cc1ncco1)c1nnc(C)n1-2 [III-112] |
| < 50 | Cc1sc2c(c1C)C(c1ccc(N3CC(N4CCN(CCOc5ccc([C@@H]6c7ccc(O)cc7CC[C@@H]6c6ccccc6)cc5)CC4)C3)cc1)=N[C@@H](Cc1ncco1)c1nnc(C)n1-2 [III-113] |
| 50 to 500 | Cc1sc2c(c1C)C(c1ccc(N3CC(N4CCN(CCOc5ccc([C@H]6c7ccc(O)cc7CC[C@H]6c6ccccc6)cc5)CC4)C3)cc1)=N[C@@H](Cc1ncco1)c1nnc(C)n1-2 [III-114] |
| 50 to 500 | Cc1sc2c(c1C)C(c1ccc(N3CCC(O)(CN4CCN(c5ccc([C@@H]6c7ccc(O)cc7CC[C@@H]6c6ccccc6)cc5)CC4)CC3)cc1)=N[C@@H](C)c1nnc(C)n1-2 [III-118] |
| 500 to 2500 | COC1(CN2CCN(c3ccc([C@@H]4c5ccc(O)cc5CC[C@@H]4c4ccccc4)cc3)CC2)CCN(c2ccc(C3=N[C@@H](C)c4nnc(C)n4-c4sc(C)c(C)c43)cc2)CC1 [III-121] |

The next lines start with the molecule.

| SMILES | GI50 [nM] |
| --- | --- |
| Cc1sc2c(c1C)C(c1ccc(N3CCC4(CC3)CN(CC3CN(c5ccc([C@@H]6c7ccc(O)cc7CC[C@@H]6c6ccccc6)cc5)C3)C4)cc1)=N[C@@H](C)c1nnc(C)n1-2 [III-108] | < 50 |
| Cc1sc2c(c1C)C(c1ccc(CN3CCC4(CC3)CCN(c3ccc([C@@H]5c6ccc(O)cc6CC[C@@H]5c5ccccc5)cc3)CC4)cc1)=N[C@@H](C)c1nnc(C)n1-2 [III-115] | 50 to 500 |
| Cc1sc2c(c1C)C(c1ccc(N3CCC4(CC3)CCN(c3ccc([C@@H]5c6ccc(O)cc6CC[C@@H]5c5ccccc5)cc3)CC4)cc1)=N[C@@H](C)c1nnc(C)n1-2 [III-116] | 500 to 2500 |
| Cc1sc2c(c1C)C(c1ccc(N3CCC4(CC3)CCN(c3ccc([C@@H]5c6ccc(O)cc6CC[C@@H]5c5ccccc5)cc3)C4)cc1)=N[C@@H](C)c1nnc(C)n1-2 [III-117] | 50 to 500 |
| Cc1sc2c(c1C)C(c1ccc(N3CCC(C(=O)N4CCN(c5ccc([C@@H]6c7ccc(O)cc7CC[C@@H]6c6ccccc6)cc5)CC4)CC3)cc1)=N[C@@H](C)c1nnc(C)n1-2 [III-119] | 50 to 500 |
| Cc1sc2c(c1C)C(c1ccc(N3CCC4(CCN(c5ccc([C@@H]6c7ccc(O)cc7CC[C@@H]6c6ccccc6)cc5)CC4)C3)cc1)=N[C@@H](C)c1nnc(C)n1-2 [III-120] | 50 to 500 |
| Cc1sc2c(c1C)C(c1ccc(N3CCN(CC4CCN(c5ncc([C@H]6c7ccc(O)cc7CC[C@H]6c6ccccc6)cn5)CC4)CC3)cc1)=N[C@@H](C)c1nnc(C)n1-2 [III-122] | 500 to 2500 |
| Cc1sc2c(c1C)C(c1ccc(N3CCN(CC4CCN(c5ncc([C@@H]6c7ccc(O)cc7CC[C@@H]6c6ccccc6)cn5)CC4)CC3)cc1)=N[C@@H](C)c1nnc(C)n1-2 [III-123] | 50 to 500 |

These molecules were tested on T-Rex 293 cells lacking increased expression of estrogen receptor alpha protein (assay: Cellular growth inhibition assay, T-Rex 293 cells, (−) doxycycline). Conditions: T-REx-293, 72 h, Table 7-A; T-Rex 293 cells without doxycycline (lacking increased ERα expression); 72 hours; CellTiter-Glo; read-out: (−) Dox GI50.
Format: cell-based
How it was run: as §1

| SMILES | GI50 [nM] |
| --- | --- |
| Cc1sc2c(c1C)C(c1ccc(CN3CC4(CCN(c5ccc([C@@H]6c7ccc(O)cc7CC[C@@H]6c6ccccc6)cc5)CC4)C3)cc1)=N[C@@H](C)c1nnc(C)n1-2 [III-107] | 500 to 2500 |
| Cc1sc2c(c1C)C(c1ccc(N3CCC4(CC3)CN(CC3CN(c5ccc([C@@H]6c7ccc(O)cc7CC[C@@H]6c6ccccc6)cc5)C3)C4)cc1)=N[C@@H](C)c1nnc(C)n1-2 [III-108] | 50 to 500 |
| Cc1sc2c(c1C)C(c1ccc(OCCN3CCN(CCOc4ccc([C@@H]5c6ccc(O)cc6CC[C@@H]5c5ccccc5)cc4)CC3)cc1)=N[C@@H](Cc1ncco1)c1nnc(C)n1-2 [III-109] | 50 to 500 |
| Cc1sc2c(c1C)C(c1ccc(OCCN3CCN(CCOc4ccc([C@H]5c6ccc(O)cc6CC[C@H]5c5ccccc5)cc4)CC3)cc1)=N[C@@H](Cc1ncco1)c1nnc(C)n1-2 [III-110] | < 50 |
| Cc1sc2c(c1C)C(c1ccc(OCC3CCN(CCOc4ccc([C@@H]5c6ccc(O)cc6CC[C@@H]5c5ccccc5)cc4)CC3)cc1)=N[C@@H](Cc1ncco1)c1nnc(C)n1-2 [III-111] | 50 to 500 |
| Cc1sc2c(c1C)C(c1ccc(OCC3CCN(CCOc4ccc([C@H]5c6ccc(O)cc6CC[C@H]5c5ccccc5)cc4)CC3)cc1)=N[C@@H](Cc1ncco1)c1nnc(C)n1-2 [III-112] | 50 to 500 |
| Cc1sc2c(c1C)C(c1ccc(N3CC(N4CCN(CCOc5ccc([C@@H]6c7ccc(O)cc7CC[C@@H]6c6ccccc6)cc5)CC4)C3)cc1)=N[C@@H](Cc1ncco1)c1nnc(C)n1-2 [III-113] | 50 to 500 |
| Cc1sc2c(c1C)C(c1ccc(N3CC(N4CCN(CCOc5ccc([C@H]6c7ccc(O)cc7CC[C@H]6c6ccccc6)cc5)CC4)C3)cc1)=N[C@@H](Cc1ncco1)c1nnc(C)n1-2 [III-114] | 50 to 500 |
| Cc1sc2c(c1C)C(c1ccc(CN3CCC4(CC3)CCN(c3ccc([C@@H]5c6ccc(O)cc6CC[C@@H]5c5ccccc5)cc3)CC4)cc1)=N[C@@H](C)c1nnc(C)n1-2 [III-115] | 500 to 2500 |
| Cc1sc2c(c1C)C(c1ccc(N3CCC4(CC3)CCN(c3ccc([C@@H]5c6ccc(O)cc6CC[C@@H]5c5ccccc5)cc3)CC4)cc1)=N[C@@H](C)c1nnc(C)n1-2 [III-116] | > 2500 |
| Cc1sc2c(c1C)C(c1ccc(N3CCC4(CC3)CCN(c3ccc([C@@H]5c6ccc(O)cc6CC[C@@H]5c5ccccc5)cc3)C4)cc1)=N[C@@H](C)c1nnc(C)n1-2 [III-117] | 500 to 2500 |
| Cc1sc2c(c1C)C(c1ccc(N3CCC(O)(CN4CCN(c5ccc([C@@H]6c7ccc(O)cc7CC[C@@H]6c6ccccc6)cc5)CC4)CC3)cc1)=N[C@@H](C)c1nnc(C)n1-2 [III-118] | 500 to 2500 |
| Cc1sc2c(c1C)C(c1ccc(N3CCC(C(=O)N4CCN(c5ccc([C@@H]6c7ccc(O)cc7CC[C@@H]6c6ccccc6)cc5)CC4)CC3)cc1)=N[C@@H](C)c1nnc(C)n1-2 [III-119] | 500 to 2500 |
| Cc1sc2c(c1C)C(c1ccc(N3CCC4(CCN(c5ccc([C@@H]6c7ccc(O)cc7CC[C@@H]6c6ccccc6)cc5)CC4)C3)cc1)=N[C@@H](C)c1nnc(C)n1-2 [III-120] | 500 to 2500 |
| COC1(CN2CCN(c3ccc([C@@H]4c5ccc(O)cc5CC[C@@H]4c4ccccc4)cc3)CC2)CCN(c2ccc(C3=N[C@@H](C)c4nnc(C)n4-c4sc(C)c(C)c43)cc2)CC1 [III-121] | > 2500 |
| Cc1sc2c(c1C)C(c1ccc(N3CCN(CC4CCN(c5ncc([C@H]6c7ccc(O)cc7CC[C@H]6c6ccccc6)cn5)CC4)CC3)cc1)=N[C@@H](C)c1nnc(C)n1-2 [III-122] | > 2500 |
| Cc1sc2c(c1C)C(c1ccc(N3CCN(CC4CCN(c5ncc([C@@H]6c7ccc(O)cc7CC[C@@H]6c6ccccc6)cn5)CC4)CC3)cc1)=N[C@@H](C)c1nnc(C)n1-2 [III-123] | 500 to 2500 |
